Among the data in patent publication US11873290B2, “Pyridazinone compounds and uses thereof” (Edgewise Therapeutics, Inc., priority 2018, dated 2024) are IC50 values, retold here.

Some results are limits rather than exact numbers.

The target of the test is skeletal myofibrils (myosin ATPase activity). Put plainly: Skeletal Myofibril ATPase Assay. It is filed as biochemical. The conditions noted are these: PK-LDH coupled, absorbance at 340 nm. The method, then:
Overview: Myosin ATPase activity is assessed by using a coupled reaction system, in which ADP generated by the myosin ATPase function is coupled to the disappearance of NADH through the pyruvate kinase/lactate dehydrogenase (PK-LDH) system. Myosin ATPase activity produces ADP, which is used as a substrate for PK to produce pyruvate and regenerate ATP. The pyruvate is then used as a substrate by LDH to oxidize NADH to NAD+. The rate of the reaction is monitored through the time-dependent disappearance of NADH using absorbance at 340 nm. Inhibition of ATPase activity by the assayed compounds is indicated by a reduced rate of NADH loss, relative to vehicle-treated controls, over the experimental time window. To assess the selectivity of the assayed compounds for skeletal myofibrils, the compounds are counter-screened in cardiac myofibrils.
Materials: The following stock solutions and reagents were used in the Skeletal Myofibril ATPase Assay:
Stock Solutions of pCa buffer. Combine PIPES, CaCl2, and EGTA solutions with 70 mL of water. Adjust pH to 7.0 and bring final volume to 100 mL.
Skeletal Myofibril ATPase Assay Procedure: BSA, ATP, NADH, PEP, and DTT solutions were thawed at room temperature, then transferred to ice. Pellet-frozen myofibrils (approximately twice the required volume) were transferred into a sufficiently large tube and capped. Myofibrils were thawed by rolling in a water bath for approximately 15 min at room temperature and cooled on ice. Buffers A and B were prepared by adjusting volumes as necessary for required number of wells and stored on ice. 0.5 μL of the compounds to be assayed were added into wells of a 384-well plate. Buffers A and B were mixed by inversion immediately prior to use, then 25 μL of each was dispensed using a Multidrop dispenser (Buffer A first, then Buffer B). The absorbance within the wells was measured at 340 nm, using a kinetic protocol in which the wells are read every 1.5-2 min for 1 h. The reaction rate was qualitatively assessed by subtracting the minimum absorbance value from the maximum value for each well, using either the SoftMax Pro plate reader software or a spreadsheet program such as Excel. Using GraphPad Prism 8.0, the data was normalized, with 100% activity defined as the absorbance change in the 1% DMSO vehicle wells and 0% assigned to no change in absorbance over the course of the experiment. The normalized data were fit to a variable-slope four-parameter logistic model, constraining the bottom to be 0 or greater. Compounds of Table 1 to 4 were tested and results of the assay appear in Table 5 herein. A=IC50 is less than or equal to 10 μM; B=IC50 is greater than 10 μM and less than 100 μM; C=IC50 is greater than 100 μM; […].
One may read the IC50 as the concentration needed to halve the response being measured. High values mean weaker potency, low ones greater potency. For the compound `Cc1cc(O)c(Cn2nc(-c3cnc(OCC(F)(F)F)nc3)ccc2=O)cn1` [Compound 86, 2-((4-hydroxy-6-methylpyridin-3-yl)methyl)-6-(2-(2,2,2-trifluoroethoxy)pyrimidin-5-yl)pyridazin-3(2H)-one], the IC50 was over 100 µM.
`Cc1ncc(Cn2nc(-c3cnc(OCC(F)(F)F)nc3)ccc2=O)cc1Cl` [Compound 87, 2-((5-chloro-6-methylpyridin-3-yl)methyl)-6-(2-(2,2,2-trifluoroethoxy)pyrimidin-5-yl)pyridazin-3(2H)-one]: the IC50 was under 10 µM.
Take `O=c1ccc(-c2cnc(OCC(F)(F)F)nc2)nn1Cc1nc(-c2ccc(F)cc2)no1` [Compound 88, 2-((3-(4-fluorophenyl)-1,2,4-oxadiazol-5-yl)methyl)-6-(2-(2,2,2-trifluoroethoxy)pyrimidin-5-yl)pyridazine-3(2H)-one]: the IC50 was under 10 µM.
Compound `O=c1ccc(-c2cnc(OCC3(F)COC3)nc2)nn1Cc1nc(-c2ccccc2)no1` [Compound 91] registered an IC50 of under 10 µM.
In turn, `O=c1ccc(-c2cnc(OCC3(F)COC3)nc2)nn1Cc1nnc(-c2ccccc2)s1` [Compound 92, 6-(2-((3-fluorooxetan-3-yl)methoxy)pyrimidin-5-yl)-2-((5-phenyl-1,3,4-thiadiazol-2-yl)methyl)pyridazin-3(2H)-one] yielded a half-inhibitory concentration (IC50) of under 10 µM.
Then `O=c1ccc(-c2cnc(OCC(F)(F)F)nc2)nn1Cc1nnc(-c2ccccc2)s1` [Compound 94, 2-((5-phenyl-1,3,4-thiadiazol-2-yl)methyl)-6-(2-(2,2,2-trifluoroethoxy)pyrimidin-5-yl)pyridazin-3(2H)-one], with under 10 µM; and `O=c1ccc(-c2cnc(OCC(F)(F)F)nc2)nn1Cc1nnc(N2CCCCC2)s1` [Compound 95, 2-((5-(piperidin-1-yl)-1,3,4-thiadiazol-2-yl)methyl)-6-(2-(2,2,2-trifluoroethoxy)pyrimidin-5-yl)pyridazin-3(2H)-one], with under 10 µM; and `O=c1ccc(-c2cnc(OCC(F)(F)F)nc2)nn1Cc1ccc2[nH]ncc2c1` [Compound 96, 2-((1H-indazol-5-yl)methyl)-6-(2-(2,2,2-trifluoroethoxy)pyrimidin-5-yl)pyridazin-3(2H)-one], with under 10 µM.
`O=c1ccc(-c2cnc(OCCOC(F)(F)F)nc2)nn1Cc1cncc(F)c1` [Compound 97, 2-((5-fluoropyridin-3-yl)methyl)-6-(2-(2-(trifluoromethoxy)ethoxy)pyrimidin-5-yl)pyridazine-3(2H)-one] showed an IC50 of under 10 µM.
The compound `CCc1ncc(Cn2nc(-c3cnc(OCC(F)(F)F)nc3)ccc2=O)s1` [Compound 99, 2-((2-ethylthiazol-5-yl)methyl)-6-(2-(2,2,2-trifluoroethoxy)pyrimidin-5-yl)pyridazine-3(2H)-one] had an IC50 of under 10 µM.
Compound `O=c1ccc(-c2cnc(OCC(F)(F)F)nc2)nn1Cc1cnc(C2CC2)s1` [Compound 100, 2-((2-cyclopropylthiazol-5-yl)methyl)-6-(2-(2,2,2-trifluoroethoxy)pyrimidin-5-yl)pyridazine-3(2H)-one] yielded an IC50 of under 10 µM.
As for `Cc1cncc(Cn2nc(-c3cnc(OCC(F)(F)F)nc3)ccc2=O)c1` [Compound 101, 2-((5-methylpyridin-3-yl)methyl)-6-(2-(2,2,2-trifluoroethoxy)pyrimidin-5-yl)pyridazine-3(2H)-one], the IC50 was under 10 µM.
For `CSCCOc1ncc(-c2ccc(=O)n(Cc3cncc(F)c3)n2)cn1` [Compound 102] the value was under 10 µM; for `O=c1ccc(-c2cnc(OCC3COC3)nc2)nn1Cc1cncc(F)c1` [Compound 103, 2((5-fluoropyridin-3-yl)methyl)-6-(2-(oxetan-3-ylmethoxy)pyrimidin-5-yl)pyridazine-3(2H)-one], under 10 µM; for `CC(C)(C)COc1ncc(-c2ccc(=O)n(Cc3cncc(F)c3)n2)cn1` [Compound 104, 2((5-fluoropyridin-3-yl)methyl)-6-(2-(neopentyloxy)pyrimidin-5-yl)pyridazine-3(2H)-one], under 10 µM.
